For the compound `*Oc1ccc(C(c2ccc(Oc3cccc4c3C(=O)N(c3ccc(Oc5ccc(N6C(=O)c7cccc(*)c7C6=O)cc5)cc3)C4=O)cc2)(C(F)(F)F)C(F)(F)F)cc1` (repeat unit), the glass transition temperature was 226.00 °C. The value for `*c1ccc(-c2ccc(N3C(=O)c4cc5c(cc4C3=O)C(c3ccccc3)(C(F)(F)F)c3cc4c(cc3O5)C(=O)N(*)C4=O)cc2C(F)(F)F)c(C(F)(F)F)c1` (repeat unit) was 400.00 °C. The value for `*c1cc(N2C(=O)c3ccc(-c4ccc5c(c4)C(=O)N(*)C5=O)cc3C2=O)ccc1OCC(F)(F)C(F)(F)C(F)(F)C(F)(F)C(F)(F)C(F)(F)F` (repeat unit) was 262.00 °C. Take `*c1ccc(P(=O)(c2ccccc2)c2ccc(N3C(=O)c4ccc(-c5ccc6c(c5)C(=O)N(*)C6=O)cc4C3=O)cc2)cc1` (repeat unit): the glass transition temperature was found to be 371.00 °C. `*c1ccc2c(c1)C(=O)N(c1c(F)cc(Oc3ccc(C(c4ccc(Oc5cc(F)c(N6C(=O)c7ccc(C(*)(C(F)(F)F)C(F)(F)F)cc7C6=O)c(F)c5)cc4)(C(F)(F)F)C(F)(F)F)cc3)cc1F)C2=O` (repeat unit): the glass transition temperature was determined as 224.00 °C.

`*C(=O)Oc1ccc2ccccc2c1-c1c(OC(=O)c2ccc3c(c2)C(=O)N(c2ccc(C(=O)Oc4ccc5ccccc5c4-c4c(OC(=O)c5ccc(N6C(=O)c7ccc(*)cc7C6=O)cc5)ccc5ccccc45)cc2)C3=O)ccc2ccccc12` (repeat unit): the glass transition temperature is 266.50 °C.

The compound `*C(=O)c1ccc2c(c1)C(=O)N(c1ccc(C(=O)Oc3ccc4ccccc4c3-c3c(OC(=O)c4ccc(N5C(=O)c6ccc(*)cc6C5=O)cc4)ccc4ccccc34)cc1)C2=O` (repeat unit) registered a glass transition temperature of 273.50 °C.

`*c1ccc2c(c1)C(=O)N(c1ccc(-c3ccc(N4C(=O)c5ccc(C(*)(C(F)(F)F)C(F)(F)F)cc5C4=O)cc3-c3cccc(C(F)(F)F)c3)c(-c3cccc(C(F)(F)F)c3)c1)C2=O` (repeat unit) showed a glass transition temperature of 278.00 °C. In turn, `*c1ccc2c(c1)C(=O)N(c1ccc(-c3ccc(N4C(=O)c5ccc(C(*)(C(F)(F)F)C(F)(F)F)cc5C4=O)cc3-c3ccccc3C(F)(F)F)c(-c3ccccc3C(F)(F)F)c1)C2=O` (repeat unit) yielded a glass transition temperature of 289.00 °C. As for `*c1ccc2c(c1)C(=O)N(c1ccc(-c3ccc(N4C(=O)c5ccc(C(*)(C(F)(F)F)C(F)(F)F)cc5C4=O)cc3Cl)c(Cl)c1)C2=O` (repeat unit), the glass transition temperature was 336.00 °C.

In turn, `*c1ccc2c(c1)C(=O)N(c1ccc(N3C(=O)c4ccc(C(*)(C(F)(F)F)C(F)(F)F)cc4C3=O)cc1C(F)(F)F)C2=O` (repeat unit) yielded a glass transition temperature of 366.00 °C. The compound `*c1ccc2c(c1)C(=O)N(c1ccc(N3C(=O)c4ccc(C(*)(C(F)(F)F)C(F)(F)F)cc4C3=O)cc1F)C2=O` (repeat unit) showed a glass transition temperature of 370.00 °C. For the compound `*c1ccc2c(c1)C(=O)N(c1ccc(Oc3ccc(P(=O)(c4ccccc4)c4ccc(Oc5cccc(N6C(=O)c7ccc(C(*)(C(F)(F)F)C(F)(F)F)cc7C6=O)c5)cc4)cc3)cc1)C2=O` (repeat unit), the glass transition temperature was 220.00 °C.

Compound `*Oc1ccc2c(c1)C(=O)N(c1cccc(Oc3ccc(P(=O)(c4ccccc4)c4ccc(Oc5ccc(N6C(=O)c7ccc(*)cc7C6=O)cc5)cc4)cc3)c1)C2=O` (repeat unit) displayed a glass transition temperature of 240.00 °C. For the compound `*c1ccc2c(c1)C(=O)N(c1ccc(OCC(F)(F)C(F)(F)C(F)(F)F)c(N3C(=O)c4ccc(C(*)(C(F)(F)F)C(F)(F)F)cc4C3=O)c1)C2=O` (repeat unit), the glass transition temperature was 266.00 °C. For `*C(=O)c1ccc2c(c1)C(=O)N(c1cc(N3C(=O)c4ccc(*)cc4C3=O)ccc1OCC(F)(F)C(F)(F)C(F)(F)C(F)(F)C(F)(F)C(F)(F)C(F)(F)C(F)(F)C(F)(F)C(F)(F)F)C2=O` (repeat unit), the glass transition temperature was determined as 194.00 °C.

On to `*C(=O)c1ccc2c(c1)C(=O)N(c1ccc(S(=O)(=O)c3ccc(N4C(=O)c5ccc(*)cc5C4=O)cc3)cc1)C2=O` (repeat unit), for which the glass transition temperature stood at 307.00 °C. `*C(=O)c1ccc2c(c1)C(=O)N(c1cccc(C(=O)c3ccccc3N3C(=O)c4ccc(*)cc4C3=O)c1)C2=O` (repeat unit) yielded a glass transition temperature of 259.00 °C. `*C(=O)c1ccc2c(c1)C(=O)N(c1c(CC)cc(Cc3cc(CC)c(N4C(=O)c5ccc(*)cc5C4=O)c(CC)c3Cl)c(Cl)c1CC)C2=O` (repeat unit) displayed a glass transition temperature of 300.00 °C. For `*C(=O)c1ccc2c(c1)C(=O)N(c1ccc(Cc3cccc(N4C(=O)c5ccc(*)cc5C4=O)c3)cc1)C2=O` (repeat unit), the glass transition temperature stood at 292.00 °C. On to `*C(=O)c1ccc2c(c1)C(=O)N(c1cccc(Oc3cccc(N4C(=O)c5ccc(*)cc5C4=O)c3)c1)C2=O` (repeat unit), for which the glass transition temperature was determined as 221.00 °C. For `*c1ccc2c(c1)C(=O)N(c1ccc(Cc3ccc(N4C(=O)c5ccc(*)cc5C4=O)c(C)c3C)c(C)c1C)C2=O` (repeat unit), the glass transition temperature was 297.00 °C. The compound `*Oc1cccc(C(C)(C)c2ccc(Oc3ccc4c(c3)C(=O)N(c3ccc(Oc5ccc(N6C(=O)c7ccc(*)cc7C6=O)cc5)cc3)C4=O)cc2)c1` (repeat unit) had a glass transition temperature of 223.00 °C.

Regarding `*Oc1cccc(Oc2ccc(Oc3ccc4c(c3)C(=O)N(c3ccc(Oc5ccc(N6C(=O)c7ccc(*)cc7C6=O)cc5)cc3)C4=O)cc2)c1` (repeat unit), the glass transition temperature is 215.00 °C. Consider `*Oc1cccc(S(=O)(=O)c2ccc(Oc3ccc4c(c3)C(=O)N(c3ccc(Oc5ccc(N6C(=O)c7ccc(*)cc7C6=O)cc5)cc3)C4=O)cc2)c1` (repeat unit), for which the glass transition temperature is 260.00 °C. For the compound `*Oc1cccc(Sc2ccc(Oc3ccc4c(c3)C(=O)N(c3ccc(Oc5ccc(N6C(=O)c7ccc(*)cc7C6=O)cc5)cc3)C4=O)cc2)c1` (repeat unit), the glass transition temperature was 212.00 °C.

Take `*Oc1cccc(S(=O)(=O)c2ccc(Oc3cccc4c3C(=O)N(c3ccc(Oc5ccc(N6C(=O)c7cccc(*)c7C6=O)cc5)cc3)C4=O)cc2)c1` (repeat unit): the glass transition temperature came to 267.00 °C.

Take `*Oc1cccc(Sc2ccc(Oc3cccc4c3C(=O)N(c3ccc(Oc5ccc(N6C(=O)c7cccc(*)c7C6=O)cc5)cc3)C4=O)cc2)c1` (repeat unit): the glass transition temperature stood at 234.00 °C. `*Oc1cccc(S(=O)(=O)c2ccc(Oc3ccc4c(c3)C(=O)N(c3ccc(Oc5cccc(Oc6ccc(N7C(=O)c8ccc(*)cc8C7=O)cc6)c5)cc3)C4=O)cc2)c1` (repeat unit) registered a glass transition temperature of 194.00 °C. The compound `*Oc1ccc(C(C)(C)c2ccc(Cc3ccc4c(c3)C(=O)N(c3cccc(N5C(=O)c6ccc(*)cc6C5=O)c3)C4=O)cc2)cc1` (repeat unit) displayed a glass transition temperature of 215.00 °C.

`*Oc1cccc(C(C)(C)c2ccc(Oc3ccc4c(c3)C(=O)N(c3cccc(N5C(=O)c6ccc(*)cc6C5=O)c3)C4=O)cc2)c1` (repeat unit): the glass transition temperature was 215.00 °C. Compound `*Oc1cccc(S(=O)(=O)c2ccc(Oc3ccc4c(c3)C(=O)N(c3cccc(N5C(=O)c6ccc(*)cc6C5=O)c3)C4=O)cc2)c1` (repeat unit) returned a glass transition temperature of 265.00 °C. The compound `*Oc1cccc(C(C)(C)c2ccc(Oc3cccc4c3C(=O)N(c3cccc(N5C(=O)c6cccc(*)c6C5=O)c3)C4=O)cc2)c1` (repeat unit) gave a glass transition temperature of 236.00 °C. Turning to `*Oc1cccc(Oc2ccc(Oc3cccc4c3C(=O)N(c3cccc(N5C(=O)c6cccc(*)c6C5=O)c3)C4=O)cc2)c1` (repeat unit), the glass transition temperature was 238.00 °C. As for `*Oc1cccc(S(=O)(=O)c2ccc(Oc3cccc4c3C(=O)N(c3cccc(N5C(=O)c6cccc(*)c6C5=O)c3)C4=O)cc2)c1` (repeat unit), the glass transition temperature is 266.00 °C. For the compound `*Oc1cccc(Sc2ccc(Oc3cccc4c3C(=O)N(c3cccc(N5C(=O)c6cccc(*)c6C5=O)c3)C4=O)cc2)c1` (repeat unit), the glass transition temperature is 231.00 °C. In turn, `*Oc1cccc2c1C(=O)N(c1cccc(Oc3ccc(C(=O)c4ccc(Oc5cccc(N6C(=O)c7cccc(*)c7C6=O)c5)cc4)cc3)c1)C2=O` (repeat unit) came in with a glass transition temperature of 198.00 °C. `*Oc1cccc2c1C(=O)N(c1cccc(S(=O)(=O)c3cccc(N4C(=O)c5cccc(*)c5C4=O)c3)c1)C2=O` (repeat unit) displayed a glass transition temperature of 241.00 °C. Compound `*C(=O)c1ccc2c(c1)C(=O)N(c1ccc(Cc3ccccc3N3C(=O)c4ccc(*)cc4C3=O)cc1)C2=O` (repeat unit) registered a glass transition temperature of 290.00 °C. Take `*C(=O)c1ccc2c(c1)C(=O)N(c1ccc(Oc3ccccc3N3C(=O)c4ccc(*)cc4C3=O)cc1)C2=O` (repeat unit): the glass transition temperature is 287.00 °C. As to `*C(=O)c1ccc2c(c1)C(=O)N(c1cccc(Oc3ccccc3N3C(=O)c4ccc(*)cc4C3=O)c1)C2=O` (repeat unit), the glass transition temperature came to 259.00 °C.

For the compound `*Oc1ccc(Oc2ccc(Oc3cccc4c3C(=O)N(CCCCCCCCN3C(=O)c5cccc(*)c5C3=O)C4=O)cc2)cc1` (repeat unit), the glass transition temperature was found to be 128.00 °C.

The values above are taken from the PolyMetriX glass transition set.
